Key:
[1] = tested on: Jurkat cells; experiment: CellTiterGlo cell viability assay; format: cell-based, human; details: Homo sapiens, 24 h, mean of triplicates, ^b/^c values estimated, read-out: IC50±sd/μM (cell viability)
Experimental: The effects of the compounds on cell viability was determined using the CellTiter-Glo® 2.0 Cell Viability Assay (Promega: G9241) following manufacturer’s protocol. Ten µL of Jurkat cells at […]
After equilibration, PROTACs were titrated at various concentrations using an Echo acoustic […]
volume of CellTiter-Glo® 2.0 reagent (10 µL) was added to each well and cells were incubated for 10 minutes at room temperature. Filtered luminescence was measured on a PHERAstar plate reader (BMG Labtech) and data was evaluated using GraphPad Prism 9 software employing a normalized curve it with the following equation: Y=Bottom + (Top-Bottom)/(1+10(LogEC50-X) *HillSlope).
Sample preparation. Jurkat cells (ATCC © HTB-22) were cultured in RPMI (Thermo: […]

[2] = target: T1, ABL1 (Homo sapiens, UniProt P00519); experiment: Kinobeads selectivity profiling; format: binding; details: Jurkat lysate, dose series given in nM, read-out: Kd (apparent dissociation constant, corrected for protein depletion)
T1 construct: endogenous in cells; host or cells: Jurkat (Clone E6.1) cell lysate
Experimental: (§1) Excitation and emission filters […]
(§2) curve. […] Measurements were
(§3) Kinobeads selectivity profiling of PROTACs
(§4) (Multiplexion, Heidelberg, Germany).
(§5) The cell lysate was ultracentrifuged and diluted
(§6) NaF, 1 mM DTT, protease inhibitors and phosphatase inhibitors to a final concentration of 5 mg/ml as determined by Bradford assay. For selectivity profiling of compounds the cell lysate (2.5 mg of total proteins per pulldown) was pre-incubated with increasing compound […]
(§7) µM) for 45 min at 4 °C in an end-over-end shaker. Subsequently, lysates were incubated with Kinobeads epsilon (17 µL settled beads) for 30 min at 4 °C. To assess the degree of protein depletion from the lysates by Kinobeads, the flow-through of the DMSO control was recovered […]
(§8) for a pulldown of pulldown experiment where the lysate was incubated a second time with fresh Kinobeads. Beads were washed in 3 steps with buffer containing 0.4%, 0.2% and no NP40.
(§9) Bound proteins were reduced with 50 mM DTT in 8 M Urea, 40 mM Tris-HCl pH 7.4 for 30 min at room temperature. After alkylation with 55 mM chloroacetamide (CAA), the Urea concentration was reduced to 1 – 2 M and proteins were digested using trypsin. Acidified peptides were desalted and concentrated using SepPak tC18 µEluation plates (Waters).
(§10) Samples were frozen, dried by vacuum centrifugation and stored at -20 °C.
(§11) LC-MS2 analysis. Peptides were measured on a Dionex Ultimate3000 nano HPLC coupled online to an Orbitrap Fusion Lumos (Thermo Fisher Scientific) mass spectrometer.
(§12) Peptides were dissolved in 0.1% formic acid and delivered to a trap column (ReproSil-pur C18-AQ, 5 μm, Dr. Maisch, 20 mm × 75 μm, self-packed) at a flow rate of 5 μL/min in LC solvent A (0.1 % formic acid).4 After 10 min of loading, peptides were transferred to an analytical column (ReproSil Gold C18-AQ, 3 μm, Dr. Maisch, 400 mm × 75 μm, self-packed) and separated using […]
(§13) acetonitrile) in LC solvent A.
(§14) The Orbitrap Fusion Lumos was operated as follows: positive polarity; spray voltage 2.1 kV, […]
(§15) A full-scan (MS1) was recorded from 360 to 1300 m/z with a resolution of 60,000 in the Orbitrap in profile mode. The MS1 AGC target was set to 4e5 and the maxIT was set to 50 ms, RF lens value was set to 50%. Based on the full scans, precursors were targeted for the MS/MS scans […]
(§16) intensity exceeded 2.5e4. The dynamic exclusion was set to 30 sec and exclude isotopes was switched on. The MS2 quadrupole isolation window was set to 1.7 m/z. Peptide fragmentation occurred in the ion routing multipole (IRM) by HCD with a fixed collision energy mode, the […]

[3] = target: T2, AAK1 (Homo sapiens, UniProt Q2M2I8); experiment: Kinobeads selectivity profiling; format: binding; details: Jurkat lysate, dose series given in nM, read-out: Kd (apparent dissociation constant, corrected for protein depletion)
T2 construct: endogenous in cells; host or cells: Jurkat (Clone E6.1) cell lysate
Experimental: as §1, §2, §3, §4, §5, §6, §7, §8, §9, §10, §11, §12, §13, §14, §15, §16

[4] = target: full-length AAK1 (Homo sapiens, UniProt Q2M2I8); experiment: NanoBRET target engagement assay, intact and permeabilized cells; details: NanoBRET, mean of duplicates
Experimental: Compounds were pipetted at various concentrations using an Echo acoustic dispenser (Labcyte), immediately followed by Tracer K10 (Promega, Tracer DB ID: T000008) for AAK1 and Aurora A and VHL Tracer (Promega, Tracer DB ID: T000019) for VHL, at an optimum KD concentration chosen from TracerDB ( tracerdb.org), respectively.
To measure the BRET signal, the NanoBRET® NanoGlo Substrate (Promega:
N1573) was added as per the manufacturer’s protocol, and filtered luminescence was measured on a PHERAstar plate reader (BMG Labtech) equipped with a luminescence filter pair (450 nm BP filter (donor) and 610 nm LP filter (acceptor)). For NanoBRET® measurement in permeabilized cells, 25 nL of digitonin (0.05 μg/μL) was pipetted into each well using an
After incubation, the BRET signals were measured by a PHERAstar plate reader (BMG Labtech) following the same procedure as intact NanoBRET® measurement. Competitive displacement data were then normalized to controls and were plotted using GraphPad Prism 9 software employing a normalized 3-parameter curve fit with the following equation:

[5] = target: T3, AURKA (Homo sapiens, UniProt O14965); experiment: Western blot assay; format: cell-based; design: endogenous in cells; host or cells: Jurkat; details: Jurkat cells, 6 h
T3 sequence (O14965 1-403): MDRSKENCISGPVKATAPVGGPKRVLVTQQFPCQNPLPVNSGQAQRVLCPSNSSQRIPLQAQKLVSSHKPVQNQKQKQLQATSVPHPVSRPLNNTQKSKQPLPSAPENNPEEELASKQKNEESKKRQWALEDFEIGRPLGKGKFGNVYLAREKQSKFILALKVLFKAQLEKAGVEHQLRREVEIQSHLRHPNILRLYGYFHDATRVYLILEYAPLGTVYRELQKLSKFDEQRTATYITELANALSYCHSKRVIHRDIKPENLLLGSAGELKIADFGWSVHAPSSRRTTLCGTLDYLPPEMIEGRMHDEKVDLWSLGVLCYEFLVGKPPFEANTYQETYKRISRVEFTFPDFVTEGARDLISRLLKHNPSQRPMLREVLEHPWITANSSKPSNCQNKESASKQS
Experimental: (§17) Two mL of Jurkat cells were seeded into 6 well plates (Greiner) at a density of 5·10 5 cells/mL.
(§18) The following day, cells were treated with compounds at according concentrations or DMSO for 6 hours and then lysed with 6 M Urea at 4 °C for 20 minutes. The lysates were centrifuged for 15 minutes at 16000 g and the supernatant was collected to perform the Western-Blot.
(§19) Protein quantification was performed using nanodrop One. The SDS samples were prepared […]
(§20) The samples were separated by a BIS-TRIS polyacrylamide gel polyacrylamide gel, 100 V for 1:45) followed by transfer to PVDF membranes (Millipore) at 350 mA for 140 minutes. The membranes were blocked using 5%wt/vol BSA (in TBS-T, 20 mM Tris-HCl, pH 7.5, 150 mM NaCl and 0.1% (vol/vol) Tween 20) at room temperature for 1 hour.
(§21) The blots were incubated with respective primary antibodies at 1:1000 dilution (Cell Signaling technologies: Aurora A (D3E4Q), ITK (2F12) and GAPDH (D4C6R)) at 4 °C overnight. The blots were washed with TBS-T thrice and incubated with 1:5000 dilution of horseradish peroxidase (HRP)-labelled respective secondary antibodies (Cell Signaling technologies, Anti- […]
(§22) The blots were washed with TBS-T thrice and then incubated with chemiluminescent HRP substrate (Bio-Rad) for 2 minutes. The blots were imaged and the signals were detected using the Amersham ImageQuant 800 (Cytiva).
(§23) Cell culture. Human MV4-11 ([…]) and human Jurkat ([…]) cells were cultured in RPMI- […]
(§24) °C in 5% CO2. Both media were supplemented with 10% FBS and 1% penicillin/streptomycin. […]

[6] = target: T4, ITK (Homo sapiens, UniProt Q08881); experiment: Western blot assay; format: cell-based; details: Jurkat cells, 6 h
T4 construct: endogenous in cells; host or cells: Jurkat
T4 sequence (Q08881 1-620): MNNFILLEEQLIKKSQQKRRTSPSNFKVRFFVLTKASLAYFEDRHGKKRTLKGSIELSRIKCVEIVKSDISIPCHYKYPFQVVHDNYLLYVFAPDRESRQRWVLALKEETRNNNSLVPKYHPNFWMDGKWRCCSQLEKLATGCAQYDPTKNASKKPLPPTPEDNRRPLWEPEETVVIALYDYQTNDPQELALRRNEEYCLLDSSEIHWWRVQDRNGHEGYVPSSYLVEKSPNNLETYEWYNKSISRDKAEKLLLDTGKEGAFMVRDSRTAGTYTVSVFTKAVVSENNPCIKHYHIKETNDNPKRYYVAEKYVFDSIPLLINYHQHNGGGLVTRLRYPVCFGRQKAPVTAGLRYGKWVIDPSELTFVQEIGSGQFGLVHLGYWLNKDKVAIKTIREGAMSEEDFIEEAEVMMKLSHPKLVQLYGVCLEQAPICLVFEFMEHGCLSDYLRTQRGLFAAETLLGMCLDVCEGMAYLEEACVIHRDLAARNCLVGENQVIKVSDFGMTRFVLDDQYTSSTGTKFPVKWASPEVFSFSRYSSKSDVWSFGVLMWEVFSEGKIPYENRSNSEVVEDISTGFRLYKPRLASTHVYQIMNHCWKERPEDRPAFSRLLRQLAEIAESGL
Experimental: as §17, §18, §19, §20, §21, §22, §23, §24

[7] = AAK1 intact (IC50±sd)/μM, intact cells, ^a values estimated by extrapolation
[8] = AAK1 permeabilized (IC50±sd)/μM, permeabilized cells

full-length AAK1, sequence (Q2M2I8 whole entry): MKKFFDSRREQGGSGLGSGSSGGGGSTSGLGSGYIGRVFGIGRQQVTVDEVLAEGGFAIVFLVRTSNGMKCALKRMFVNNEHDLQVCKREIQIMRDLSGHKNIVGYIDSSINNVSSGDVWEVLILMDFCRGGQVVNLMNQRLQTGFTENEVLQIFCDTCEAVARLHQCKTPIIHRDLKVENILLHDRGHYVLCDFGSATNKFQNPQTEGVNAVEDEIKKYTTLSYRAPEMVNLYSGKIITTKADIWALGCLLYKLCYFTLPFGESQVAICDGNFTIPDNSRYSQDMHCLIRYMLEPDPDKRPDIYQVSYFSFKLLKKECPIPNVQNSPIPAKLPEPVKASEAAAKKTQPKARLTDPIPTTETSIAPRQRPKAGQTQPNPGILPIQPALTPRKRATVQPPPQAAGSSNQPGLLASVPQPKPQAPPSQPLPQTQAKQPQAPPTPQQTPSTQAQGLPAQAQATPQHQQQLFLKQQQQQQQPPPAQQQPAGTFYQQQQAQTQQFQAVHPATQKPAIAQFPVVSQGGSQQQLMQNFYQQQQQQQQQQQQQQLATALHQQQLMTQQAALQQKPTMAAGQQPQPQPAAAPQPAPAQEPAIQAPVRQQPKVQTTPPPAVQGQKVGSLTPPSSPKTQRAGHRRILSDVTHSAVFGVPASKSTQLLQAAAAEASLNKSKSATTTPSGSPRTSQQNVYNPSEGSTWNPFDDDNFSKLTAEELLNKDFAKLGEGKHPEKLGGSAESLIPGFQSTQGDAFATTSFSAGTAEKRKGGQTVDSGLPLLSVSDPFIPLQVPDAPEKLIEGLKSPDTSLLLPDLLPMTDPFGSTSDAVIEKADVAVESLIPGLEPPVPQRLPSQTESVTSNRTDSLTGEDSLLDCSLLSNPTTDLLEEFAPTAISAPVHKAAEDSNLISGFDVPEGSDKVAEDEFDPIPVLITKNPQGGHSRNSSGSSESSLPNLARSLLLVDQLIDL
T1 sequence (P00519 whole entry): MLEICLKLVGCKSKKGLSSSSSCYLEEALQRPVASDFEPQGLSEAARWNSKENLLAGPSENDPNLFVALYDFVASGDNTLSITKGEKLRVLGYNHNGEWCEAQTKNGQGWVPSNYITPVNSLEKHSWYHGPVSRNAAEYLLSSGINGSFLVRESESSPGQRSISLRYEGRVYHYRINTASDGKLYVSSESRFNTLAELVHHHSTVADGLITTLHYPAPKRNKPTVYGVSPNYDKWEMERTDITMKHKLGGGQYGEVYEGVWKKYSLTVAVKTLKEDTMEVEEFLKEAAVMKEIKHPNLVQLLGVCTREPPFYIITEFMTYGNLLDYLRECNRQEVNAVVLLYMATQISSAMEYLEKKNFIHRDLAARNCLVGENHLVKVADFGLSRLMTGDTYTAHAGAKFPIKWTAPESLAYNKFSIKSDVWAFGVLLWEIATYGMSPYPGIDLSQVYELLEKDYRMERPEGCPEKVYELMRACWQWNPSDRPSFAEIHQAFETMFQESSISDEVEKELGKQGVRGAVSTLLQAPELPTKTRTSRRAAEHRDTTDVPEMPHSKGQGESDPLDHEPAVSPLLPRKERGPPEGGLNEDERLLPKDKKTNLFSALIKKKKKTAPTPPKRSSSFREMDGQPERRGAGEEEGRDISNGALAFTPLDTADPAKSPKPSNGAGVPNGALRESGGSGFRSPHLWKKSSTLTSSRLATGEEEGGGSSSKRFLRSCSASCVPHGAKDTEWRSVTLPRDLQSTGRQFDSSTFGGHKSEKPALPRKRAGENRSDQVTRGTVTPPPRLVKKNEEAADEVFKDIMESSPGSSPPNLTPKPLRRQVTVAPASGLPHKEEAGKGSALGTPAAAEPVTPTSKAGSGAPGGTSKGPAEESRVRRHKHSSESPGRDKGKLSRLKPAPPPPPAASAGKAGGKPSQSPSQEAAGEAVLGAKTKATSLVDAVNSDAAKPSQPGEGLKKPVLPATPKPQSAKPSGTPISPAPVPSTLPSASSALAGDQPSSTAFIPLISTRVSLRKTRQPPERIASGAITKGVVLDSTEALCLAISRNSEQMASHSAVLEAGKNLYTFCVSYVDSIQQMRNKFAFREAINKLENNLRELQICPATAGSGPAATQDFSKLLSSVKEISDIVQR
T2 sequence (Q2M2I8 whole entry): as the sequence (Q2M2I8 whole entry) above

| Structure (SMILES) | IC50 [1] [µM] | Kd [2] [nM] | Kd [3] [nM] | IC50 [4, 7] [µM] | IC50 [4, 8] [µM] | AURKA protein levels (Western blot) [5] | ITK protein levels (Western blot) [6] |
| --- | --- | --- | --- | --- | --- | --- | --- |
| NC(=O)c1ccccc1Nc1nc(Nc2ccc(N3CCNCC3)cc2)ncc1Cl [compound 6] | 0.7 ± 0.2 | 420 | 6.4 | 0.004 ± 0.001 | 0.004 | – | – |
| O=C(COc1cccc2c1C(=O)N(C1CCC(=O)NC1=O)C2=O)NCCOCCOCCNC(=O)C1(Cc2cccc(Nc3nccs3)n2)CCC(Oc2cccc(Cl)c2F)CC1 (centres unmarked) [JB300, reference compound] | – | – | – | – | – | strong degradation | – |
| CC(C)(C)OC(=O)N1CCN(c2cc(Nc3cc(C4CC4)[nH]n3)nc(Nc3ccc(CC#N)cc3)n2)CC1 [compound 4] | – | 2970 | 29.4 | 0.005 | 0.003 | – | – |
| COc1cc(C)c(Sc2cnc(NC(=O)c3ccc(N4CCN(CCCCCCCNC(=O)COc5cccc6c5C(=O)N(C5CCC(=O)NC5=O)C6=O)CC4)cc3)s2)cc1C(=O)N1CCN(C(C)=O)CC1 (centres unmarked) [BSJ-05–037, reference compound] | – | – | – | – | – | – | only weak degradation of ITK |
